According to patent publication US20230190947A1, “Hemoglobin-Targeted Drug Delivery For The Treatment of Cancer” (Therapure Biopharma Inc., priority 2016, published 2023):

Experiments:
[1] = system: human colon cancer; assay: Human colon cancer model: mice orthotopically implanted with GFP-transfected colon cancer tumor fragments; type: in vivo
Procedure: A study testing Hb-FUdR in mice orthotopically implanted with tumor fragments derived from colon cancer cells (transfected with green fluorescence protein for in-life tumor visualization was conducted as follows:
(§1) Study design: Fifty (50) tumor-bearing mice were randomly divided into five groups with ten (10) mice per group. Animals (10 mice per group) were treated with Hb-FUdR at 6, 32, and 161 mg Hb/kg (0.15, 0.74, and 3.7 mg FUdR/kg) twice weekly via intravenous injection (tail vein) at 5 mL/kg. Control untreated animals were treated with PBS at 5 mL/kg. Control FUdR treated animals were treated with 3.7 mg FUdR/kg. Study endpoint: The study was terminated 47 days post tumor inoculation. All remaining mice in each group were sacrificed at this time point. All animals in the PBS treated group and approximately 50% of animals in other treated groups died before the study endpoint. Therefore, survival time between groups was considered one of the criteria to assess the efficacy of the test agents. Primary tumors were excised and weighted at necropsy for subsequent analysis.
The anti-tumor efficacy of Hb-FUdR against the implanted human colon cancer was evaluated by comparing the primary tumor sizes measured twenty-one days after treatment initiation, and the differences in survival time between the Hb-FUdR treated and PBS control groups.

[2] = set-up: species or system mice; conditions: mouse, in vivo
Procedure: as §1
[…]. […] Other symptoms of related toxicity were absent by gross observation.

[3] = system: HCC; conditions: SHARP trial; vs. 7.9 months; cited from earlier work
[4] = Hb 0 mg/kg, FUdR 3.7 mg/kg (free drug), 9 mice evaluated

SMILES	No. of mice with L.N. met. [1, 4]	No. of mice with liver met. [1, 4]	Mean survival time ([1]; Hb 0 mg/kg, FUdR 3.7 mg/kg (free drug), study terminated 47 days post tumor inoculation) [days]	Average tumor volume ([1]; Hb 0 mg/kg, FUdR 3.7 mg/kg (free drug), twenty-one days after treatment initiation) [mm^3]	Survival time of the treated mice ([1]; summary statement)	Toxicity [2]	Overall survival [3] [months]
O=c1[nH]c(=O)n([C@H]2C[C@H](O)[C@@H](CO)O2)cc1F [FUdR, floxuridine]	6	4	43.9	254.58 ± 196.74	significantly prolonged survival time	without obvious toxicity	
CNC(=O)c1cc(Oc2ccc(NC(=O)Nc3ccc(Cl)c(C(F)(F)F)c3)cc2)ccn1 [Sorafenib]							10.7
